Results: patent publication US20100298448A1, “PENETRATION ENHANCERS FOR FUNGICIDAL AGENTS” (priority 2006, published 2010)

Conditions: apple tree (Golden Delicious variety)
Method: In this test, the penetration of active substances through enzymatically isolated cuticles of apple tree leaves was measured.
Leaves which were cut off in the stage of full development of apple trees of the Golden Delicious variety were used. The isolation of the cuticles was effected in a manner such that • first leaf discs marked on the underside with dye and punched out were filled by means of vacuum infiltration with a pectinase solution (0.2 to 2% strength) buffered to a pH between 3 and 4, sodium azide was then added and • the leaf discs thus treated were allowed to stand until disintegration of the original leaf structure and detachment of the noncellular cuticle.
Thereafter, only those cuticles of the upper sides of the leaves which were free of staltoa and hairs were further used. They were washed several times alternately with water and a buffer solution at pH 7. The clean cuticles obtained were finally drawn onto small Teflon plates and smoothed and dried with a gentle air jet.
In the next step, the cuticle membranes thus obtained were placed in stainless steel diffusion cells (=transport chambers) for membrane transport investigations. For this purpose, the cuticles were placed by means of forceps centrally on the silicone grease-coated edges of the diffusion cells and closed with a likewise greased ring. The arrangement was chosen so that the morphological outside of the cuticles faced outwards, i.e. towards the air, while the original inside faced the interior of the diffusion cell. The diffusion cells were filled with water or with a mixture of water and solvent. […]
After the application of the spray liquors, in each case the water was allowed to evaporate, and in each case the chambers were then turned around and were placed in thermostated trays, air having a defined temperature and atmospheric humidity being blown onto the outside of the cuticle. […] The active substance penetration was measured with radioactively marked active substance.

SMILES: CC(C)(C)C(O)(CCc1ccc(Cl)cc1)Cn1cncn1 (stereo not drawn) [Tebuconazole, tebuconazole]
- Penetration* after 5 hours [%]: 2%
- Penetration* after 1 day [%]: 8%
- Penetration** after 2 days [%]: 15%
